Tests used:
Assay in all cases: relative viability (nuclei count vs DMSO), 5 days (fraction); higher = more cells survive
NCI-H322M = test system: NCI-H322M
In short: (§1)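 Relative viability was taken as the ratio of nuclei in treated wells to nuclei in vehicle wells. Lung cancer cell lines in 1536-well plates received compounds by pin tool one day after seeding, either one drug alone or a fixed anchor-drug dose plus five library-drug doses (not always all listed) in √10 steps. Nuclei were counted on 4× images after 5 days of treatment, and values are medians of duplicate plates.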

NCI-H838 = test system: NCI-H838
In short: as §1

UMC-11 = test system: UMC-11
In short: as §1

RERF-LC-KJ = test system: RERF-LC-KJ
In short: as §1

ABC-1 = test system: ABC-1
In short: as §1

NCI-H2023 = test system: NCI-H2023
In short: as §1

A-427 = test system: A-427
In short: as §1

NCI-H1793 = test system: NCI-H1793
In short: as §1

NCI-H2009 = test system: NCI-H2009
In short: as §1

NCI-H441 = test system: NCI-H441
In short: as §1

NCI-H1944 = test system: NCI-H1944
In short: as §1

HCC-15 = test system: HCC-15
In short: as §1

NCI-H1915 = test system: NCI-H1915
In short: as §1

NCI-H1734 = test system: NCI-H1734
In short: as §1

SW 1573 = test system: SW 1573
In short: as §1

NCI-H2347 = test system: NCI-H2347
In short: as §1

EPLC-272H = test system: EPLC-272H
In short: as §1

LC-2-ad = test system: LC-2-ad
In short: as §1

LK-2 = test system: LK-2
In short: as §1

NCI-H647 = test system: NCI-H647
In short: as §1

NCI-H358 = test system: NCI-H358
In short: as §1

With Cc1csc(=NC2CCCCC2)n1/N=C/c1ccc(O)c(O)c1O [MIM1] + Cc1nc(NC(=O)N2CCC[C@H]2C(N)=O)sc1-c1ccnc(C(C)(C)C(F)(F)F)c1 [Alpelisib] (partner 2 µM) the relative viability (NCI-H322M; first compound 0.2 µM) was 0.771, the relative viability (NCI-H322M; first compound 0.6325 µM) was 0.737 and the relative viability (NCI-H322M; first compound 2 µM) was 0.836. For the same compound, the relative viability (NCI-H322M; first compound 6.325 µM) was 0.74, the relative viability (NCI-H322M; first compound 20 µM) was 0.834 and the relative viability (NCI-H838; first compound 0.2 µM) was 0.974. For the same compound, the relative viability (NCI-H838; first compound 0.6325 µM) was 1, the relative viability (NCI-H838; first compound 2 µM) was 0.83 and the relative viability (NCI-H838; first compound 6.325 µM) was 0.827. It also gave a relative viability (NCI-H838; first compound 20 µM) of 1.09, a relative viability (UMC-11; first compound 0.2 µM) of 0.952 and a relative viability (UMC-11; first compound 0.6325 µM) of 1.04. For the same compound, the relative viability (UMC-11; first compound 2 µM) was 0.962, the relative viability (UMC-11; first compound 6.325 µM) was 0.69 and the relative viability (UMC-11; first compound 20 µM) was 0.224. The relative viability (RERF-LC-KJ; first compound 0.2 µM) was 0.802, the relative viability (RERF-LC-KJ; first compound 0.6325 µM) was 0.801 and the relative viability (RERF-LC-KJ; first compound 2 µM) was 0.704. It also gave a relative viability (RERF-LC-KJ; first compound 6.325 µM) of 0.668, a relative viability (RERF-LC-KJ; first compound 20 µM) of 0.213 and a relative viability (ABC-1; first compound 0.2 µM) of 1.02. The relative viability (ABC-1; first compound 0.6325 µM) was 1.05, the relative viability (ABC-1; first compound 2 µM) was 0.913 and the relative viability (ABC-1; first compound 6.325 µM) was 0.816. For the same compound, the relative viability (ABC-1; first compound 20 µM) was 0.322, the relative viability (NCI-H2023; first compound 0.2 µM) was 0.564 and the relative viability (NCI-H2023; first compound 0.6325 µM) was 0.594. The relative viability (NCI-H2023; first compound 2 µM) was 0.526, the relative viability (NCI-H2023; first compound 6.325 µM) was 0.368 and the relative viability (NCI-H2023; first compound 20 µM) was 0.328. The relative viability (A-427; first compound 0.2 µM) was 1.09, the relative viability (A-427; first compound 0.6325 µM) was 1.06 and the relative viability (A-427; first compound 2 µM) was 1.15. The relative viability (A-427; first compound 6.325 µM) was 1.06, the relative viability (A-427; first compound 20 µM) was 0.335 and the relative viability (NCI-H1793; first compound 0.2 µM) was 0.509. The relative viability (NCI-H1793; first compound 0.6325 µM) was 0.584, the relative viability (NCI-H1793; first compound 2 µM) was 0.717 and the relative viability (NCI-H1793; first compound 6.325 µM) was 0.579. For the same compound, the relative viability (NCI-H1793; first compound 20 µM) was 0.804, the relative viability (NCI-H2009; first compound 0.2 µM) was 1.14 and the relative viability (NCI-H2009; first compound 0.6325 µM) was 1.21. For the same compound, the relative viability (NCI-H2009; first compound 2 µM) was 1.23, the relative viability (NCI-H2009; first compound 6.325 µM) was 1.04 and the relative viability (NCI-H2009; first compound 20 µM) was 0.987. It also gave a relative viability (NCI-H441; first compound 0.2 µM) of 0.75, a relative viability (NCI-H441; first compound 0.6325 µM) of 0.63 and a relative viability (NCI-H441; first compound 2 µM) of 0.655. The relative viability (NCI-H441; first compound 6.325 µM) was 0.594, the relative viability (NCI-H441; first compound 20 µM) was 0.187 and the relative viability (NCI-H1944; first compound 0.2 µM) was 0.831. The relative viability (NCI-H1944; first compound 0.6325 µM) was 0.849, the relative viability (NCI-H1944; first compound 2 µM) was 0.671 and the relative viability (NCI-H1944; first compound 6.325 µM) was 0.733. For the same compound, the relative viability (NCI-H1944; first compound 20 µM) was 0.882, the relative viability (HCC-15; first compound 0.2 µM) was 0.989 and the relative viability (HCC-15; first compound 0.6325 µM) was 0.838. The relative viability (HCC-15; first compound 2 µM) was 0.967, the relative viability (HCC-15; first compound 6.325 µM) was 0.481 and the relative viability (HCC-15; first compound 20 µM) was 0.125. For the same compound, the relative viability (NCI-H1915; first compound 0.2 µM) was 1.14, the relative viability (NCI-H1915; first compound 0.6325 µM) was 1.04 and the relative viability (NCI-H1915; first compound 2 µM) was 1.02. It also gave a relative viability (NCI-H1915; first compound 6.325 µM) of 0.773, a relative viability (NCI-H1915; first compound 20 µM) of 0.277 and a relative viability (NCI-H1734; first compound 0.2 µM) of 0.738. For the same compound, the relative viability (NCI-H1734; first compound 0.6325 µM) was 0.655, the relative viability (NCI-H1734; first compound 2 µM) was 0.696 and the relative viability (NCI-H1734; first compound 6.325 µM) was 0.655. For the same compound, the relative viability (NCI-H1734; first compound 20 µM) was 0.38, the relative viability (SW 1573; first compound 0.2 µM) was 0.809 and the relative viability (SW 1573; first compound 0.6325 µM) was 0.758. It also gave a relative viability (SW 1573; first compound 2 µM) of 0.808, a relative viability (SW 1573; first compound 6.325 µM) of 0.639 and a relative viability (SW 1573; first compound 20 µM) of 0.618. It also gave a relative viability (NCI-H2347; first compound 0.2 µM) of 1.03, a relative viability (NCI-H2347; first compound 0.6325 µM) of 1.02 and a relative viability (NCI-H2347; first compound 2 µM) of 1.13. The relative viability (NCI-H2347; first compound 6.325 µM) was 0.728, the relative viability (NCI-H2347; first compound 20 µM) was 0.534 and the relative viability (EPLC-272H; first compound 0.2 µM) was 0.968. For the same compound, the relative viability (EPLC-272H; first compound 0.6325 µM) was 0.769, the relative viability (EPLC-272H; first compound 2 µM) was 0.973 and the relative viability (EPLC-272H; first compound 6.325 µM) was 0.958. The relative viability (EPLC-272H; first compound 20 µM) was 0.294, the relative viability (LC-2-ad; first compound 0.2 µM) was 0.867 and the relative viability (LC-2-ad; first compound 0.6325 µM) was 0.905. The relative viability (LC-2-ad; first compound 2 µM) was 0.946, the relative viability (LC-2-ad; first compound 6.325 µM) was 0.527 and the relative viability (LC-2-ad; first compound 20 µM) was 0.116. For the same compound, the relative viability (LK-2; first compound 0.2 µM) was 0.958, the relative viability (LK-2; first compound 0.6325 µM) was 1.04 and the relative viability (LK-2; first compound 6.325 µM) was 0.963. It also gave a relative viability (LK-2; first compound 20 µM) of 0.374, a relative viability (NCI-H647; first compound 0.2 µM) of 1.23 and a relative viability (NCI-H647; first compound 0.6325 µM) of 1.14. It also gave a relative viability (NCI-H647; first compound 2 µM) of 1.12, a relative viability (NCI-H647; first compound 6.325 µM) of 0.991 and a relative viability (NCI-H647; first compound 20 µM) of 0.213. For the same compound, the relative viability (NCI-H358; first compound 0.2 µM) was 0.829, the relative viability (NCI-H358; first compound 0.6325 µM) was 0.881 and the relative viability (NCI-H358; first compound 2 µM) was 0.721. For the same compound, the relative viability (NCI-H358; first compound 6.325 µM) was 0.383 and the relative viability (NCI-H358; first compound 20 µM) was 0.274.

Reference: the supplement of paper PMC10307832
